Usually inhibition stands for the drop in the measured response relative to a control, in per cent. The low end stands for a response near the control, the high end for a response far below the control. A word on the Ki: it is a dissociation constant, usually derived from enzyme kinetics or from competition with a known ligand. A lower Ki goes with higher affinity. In general, IC50 refers to the midpoint of a concentration-inhibition curve.

Results on 17 compounds are retold here after US5475016A, “Sulphonylbenzyl-substituted imidazolypropenoic acid derivatives” (Bayer Aktiengesellschaft, priority 1992, dated 1995).

The first assay deals with Angiotensin II-infused rat. The assay is described as follows: Blood pressure measurements on the angiotensin II-infused rat. The format is in vivo, male Wistar rats. As to conditions: 0.1 mg/kg p.o.; angiotensin II infusion 0.3 μg/kg/min; average values. The protocol: Blood Pressure Measurements on the Angiotensin II-Infused Rat
Male Wistar rats (Moellegaard, Copenhagen, Denmark) having a body weight of 300-350 g are anaesthetised with thiopental (100 mg/kg i.p.). After tracheotomy, a catheter is inserted in the femoral artery for blood pressure measurement and a catheter for angiotensin II infusion and a catheter for substance administration are inserted in the femoral veins. After administration of the ganglionic blocker pentolinium (5 mg/kg i.v.), the angiotensin II infusion (0.3 μg/kg/min) is started. As soon as the blood pressure values have reached a stable plateau, the test substances are administered either intravenously or orally as a suspension or solution in 0.5% Tylose.
For the compound `CCCCc1ncc(C=C(CC(C)C)C(=O)OCC)n1Cc1ccc(S(=O)(=O)N2CCC[C@H]2C(=O)O)cc1Cl` [Example 41], the “Blood pressure measurement (blood pressure change)” value was -11 mm Hg.

Regarding `CCCCc1ncc(C=C(CC(C)C)C(=O)O)n1Cc1ccc(S(=O)(=O)N2CCC[C@H]2C(=O)O)cc1Cl` [Example 43], the “Blood pressure measurement (blood pressure change)” value is given as -10 mm Hg.

As for `CCCCc1nc(Cl)c(C=C(CC2CCCCC2)C(=O)O)n1Cc1ccc(S(=O)(=O)N2CCC[C@H]2C(=O)O)cc1` [Example 23], the “Blood pressure measurement (blood pressure change)” value is -17 mm Hg.

For the next assay, the system named is smooth muscle cells. The assay is described as follows: Inhibition of the proliferation of smooth muscle cells (3H-thymidine incorporation). As to conditions: 10^-6 M. In kind it is cell-based, rats or pigs. The protocol: Investigation of Inhibition of the Proliferation of Smooth Muscle Cells by the Compounds According to the Invention
To determine the antiproliferative action of the compounds, smooth muscle cells are used which have been obtained from the aortas of rats or pigs by the media explant technique [R. Ross, J. Cell. Biol. 50, 172, 1971]. The cells are inoculated into suitable culture dishes, as a rule 24-hole plates, and cultured at 37° C. in 5% CO2 for 2-3 days in Medium 199 containing 7.5% FCS and 7.5% NCS, 2 mM L-glutamine and 15 mM HEPES, pH 7.4. After this, the cells are synchronised by withdrawal of serum for 2-3 days and then stimulated into growth with AII, serum or other factors. At the same time, test compounds are added. After 16-20 hours, 1 μCi of ^3 H-thymidine is added and the incorporation of this substance into the TCA-precipitable DNA of the cells is determined after a further 4 hours.
`CCCCc1nc(Cl)c(C=C(Cc2cccs2)C(=O)OC)n1Cc1ccc(S(=O)(=O)N2CCCCC2)cc1` [Example 27] had an inhibition at 1 µM of 30%. For the compound `CCCCc1nc(Cl)c(C=CC(=O)O)n1Cc1ccc(S(=O)(=O)N2CCCC2)cc1` [Example 6], at 1 µM the inhibition was 70%.

The target of another assay is T1, Angiotensin II receptor (Bos taurus, UniProt P25104).
T1 construct: from tissue; host or cells: bovine adrenal gland cortex, partially purified membrane fractions
T1 sequence (P25104 1-359): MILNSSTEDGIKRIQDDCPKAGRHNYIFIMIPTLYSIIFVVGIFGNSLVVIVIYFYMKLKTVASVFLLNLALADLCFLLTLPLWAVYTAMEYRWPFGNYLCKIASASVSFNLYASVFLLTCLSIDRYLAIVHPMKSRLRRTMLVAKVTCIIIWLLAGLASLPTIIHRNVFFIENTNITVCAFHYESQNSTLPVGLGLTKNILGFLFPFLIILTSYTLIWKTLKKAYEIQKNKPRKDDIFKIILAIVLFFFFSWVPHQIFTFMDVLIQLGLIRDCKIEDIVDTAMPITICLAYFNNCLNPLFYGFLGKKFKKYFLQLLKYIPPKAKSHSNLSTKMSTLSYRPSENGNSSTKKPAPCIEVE
Briefly: Interaction with the angiotensin II receptor on membrane fractions of the adrenal gland cortex (cattle), 3H-angiotensin II binding. The conditions noted are these: bovine adrenal gland cortex membranes, 3H-angiotensin II 3-5 nM, 60 min at room temperature. An excerpt:
Interaction of the Compounds According to the Invention with the Angiotensin II Receptor on Membrane Fractions of the Adrenal Gland Cortex (Cattle)
Adrenal gland cortices of cattle (AGC), which have been freshly removed and carefully freed from gland medulla, are comminuted in sucrose solution (0.32M) with the aid of an Ultra-Turrax (Janke & Kunkel, Staufen i.B.) to give a coarse membrane homogenate and are partially purified in two centrifugation steps to give membrane fractions. The receptor binding investigations are carried out on partially purified membrane fractions of bovine AGC using radioactive angiotensin II in an assay volume of 0.25 ml, which in detail contains the partially purified membranes (50-80 μg), ^3 H-angiotensin II (3-5 nM), test buffer solution (50 mM tris, pH 7.2, 5 mM MgCl2, 0.25% BSA) and the substances to be investigated. After an incubation time of 60 min at room temperature, the unbound radioactivity of the samples is separated by means of moistened glass fibre filters (Whatman GF/C) and the bound radioactivity is measured […] in a scintillation cocktail after washing the protein with ice-cold buffer solution (50 mM tris/HCl, pH 7.4, 5% PEG 6000). The analysis of the raw data was carried out using computer programs to give Ki or IC50 values (Ki : IC50 values corrected for the radioactivity used; IC50 values: concentration at which the substance to be investigated causes a 50% inhibition of the specific binding of the radioligand).
Take `CCCCc1nc(Cl)c(C=C(CC2CCCCC2)C(=O)O)n1Cc1ccc(S(=O)(=O)N2CCCCC2)cc1` [Example 10]: affinity was put at a Ki of 40 nM. On the same count and under the same terms, next, `CCCCc1nc(Cl)c(C=C(Cc2cccs2)C(=O)OC)n1Cc1ccc(S(=O)(=O)N2CCCCC2C(=O)OC(C)(C)C)cc1` (stereo not drawn) [Example 30]: 120 nM. The same measure, in the same setting: next, `CCCCc1nc(Cl)c(C=C(CC2CCCC2)C(=O)O)n1Cc1ccc(S(=O)(=O)N2CCCCC2)cc1` [Example 9]: 100 nM. The same measure, in the same setting: the same measure for `CCCCc1nc(Cl)c(C=C(CC2CCCC2)C(=O)O)n1Cc1ccc(S(=O)(=O)N2CCCCC2C(=O)O)cc1Cl` (stereo not drawn) [Example 20]: 40 nM.

The test system of another assay is isolated aorta rings of rabbits, contraction induced by angiotensin II (AII). The assay is described as follows: Inhibition of the vascular contraction in isolated aorta rings of rabbits in vitro, contraction induced by angiotensin II. The format is cell-based, rabbit. The conditions noted are these: Oryctolagus cuniculus, effect at the 3rd = submaximal agonist concentration, read-out: IC50 against contractions induced by: AII. The protocol:
Investigation of the Inhibition of the Contraction Induced with Agonists
Rabbits of both sexes are anaesthetised by a blow to the neck and bled out, or alternatively anaesthetised with Nembutal (about 60-80 mg/kg i.v.) and sacrificed by opening the thorax. The thorax aorta is taken out, freed from adhering connective tissue, divided into 1.5 mm-wide ring segments and these are individually transferred under an initial loading of about 3.5 g to 10-ml organ baths containing 95% O2 /5% CO2 -aerated Krebs-Henseleit nutrient solution, thermostated at 37° C., of the following composition: 119 mmol/l NaCl; 2.5 mmol/l CaCl2 ×2H2 O; 1.2 mmol/l KH2 PO4; 10 mmol/l glucose; 4.8 mmol/l KCl; 1.4 mmol/l MgSO4 ×7 H2 O and 25 mmol/l NaHCO3.
The contractions are detected isometrically by Statham UC2 cells by means of a bridge amplifier (ifd Mulheim or DSM Aalen) and digitised and evaluated by means of an A/D converter (System 570, Keithley, Munich). The implementation of agonist dose-response curves (DRC) is carried out hourly. With each DRC, 3 or 4 individual concentrations are applied to the baths at 4-min intervals. After the end of the DRC and subsequent washing-out cycles (16 times, in each case about 5 sec/min with the abovementioned nutrient solution), a 28-minute rest or incubation phase follows, in the course of which the contractions as a rule reach the starting value again.
The height of, in the normal case, the 3rd DRC is used as a reference quantity for the assessment of the test substance to be investigated in further runs, which test substance in the following DRCs is applied at the start of the incubation time to the baths, in each case in an increasing dose. Each aorta ring is in this case stimulated for the whole day, always with the same agonist.
Agonists and their Standard Concentrations (Administration Volume Per Individual Dose=100 μl):
For the calculation of the IC50 (concentration at which the substance to be investigated causes a 50% inhibition), the effect in each case at the 3rd=submaximal agonist concentration is used as a basis.
Regarding `CCCCc1nc(Cl)c(C=C(CC2CCCCC2)C(=O)O)n1Cc1ccc(S(=O)(=O)N2CCC[C@H]2C(=O)O)cc1Cl` [Example 24], the half-inhibitory concentration (IC50) was found to be 1 nM.

With `CCCCc1ncc(C=C(CC(C)C)C(=O)O)n1Cc1ccc(S(=O)(=O)N2CCC[C@H]2C(=O)O)cc1Cl` [Example 43], the IC50 amounted to 3 nM. Same read-out and setting: next, `CCCCc1ncc(C=C(CC2CCCC2)C(=O)O)n1Cc1ccc(S(=O)(=O)N2CCC[C@H]2C(=O)O)cc1Cl` [Example 47]: 4 nM. Still for that read-out and setting: the same measure for `CCCCc1ncc(C=C(CCC)C(=O)O)n1Cc1ccc(S(=O)(=O)N2CCC[C@H]2C(=O)O)cc1Cl` [Example 39]: 4 nM. With `CCCCc1nc(Cl)c(C=C(CC2CCCC2)C(=O)OC)n1Cc1ccc(S(=O)(=O)N2CCCCC2C(=O)O)cc1Cl` (racemic) [Example 2, rac-4-{[2-Butyl-4-chloro-5-(3-cyclopentyl-2-methoxycarbonylprop-1-enyl)imidazolyl]methyl}-3-chlorobenzenesulphonyl-N-(2-carboxy)piperidinide], the IC50 was 11 nM.

On to `CCCCc1ncc(C=C(Cc2cccs2)C(=O)O)n1Cc1ccc(S(=O)(=O)N2CCC[C@H]2C(=O)O)cc1Cl` [Example 55], for which the IC50 amounted to 3 nM.

Turning to `CCCCc1nc(Cl)c(C=C(CC2CCCC2)C(=O)O)n1Cc1ccc(S(=O)(=O)N2CCC[C@H]2C(=O)O)cc1` [Example 19], the IC50 came out at 40 nM. Still for that read-out and setting: next, `CCCCc1ncc(C=C(Cc2cccs2)C(=O)OC)n1Cc1ccc(S(=O)(=O)N2CCC[C@H]2C(=O)O)cc1Cl` [Example 53]: 6 nM; `CCCCc1ncc(C=C(Cc2ccc(F)cc2)C(=O)OC)n1Cc1ccc(S(=O)(=O)N2CCC[C@H]2C(=O)O)cc1Cl` [Example 57]: 6 nM.
